According to patent US8163909B2, “Substituted hydroxyethyl amine compounds as beta-secretase modulators and methods of use” (Amgen Inc., priority 2007, dated 2012):
Read-outs that look alike come from different tables or passages of the source.

Columns and labels:
[1] = Microsomal stability assay, human liver microsomes;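 further: pooled human liver microsomes at 0.25 mg/mL with 1 µM compound and NADPH at 37 °C, pH 7.4, for 30 min, unchanged parent quantified by LC-MS/MS against the 0 min sample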
[2] = test system: Aβ40 in conditioned medium of cells stably expressing Amyloid Precursor Protein (APP); experiment: In vitro BACE cell-based assay (Aβ40 in conditioned medium, sandwich ELISA); details: Homo sapiens;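 further: compounds added as a dilution series, secreted peptide quantified by europium time-resolved fluorescence readout, potency fitted from percent of control versus compound concentration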
[3] = Microsomal stability assay, rat liver microsomes;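 further: rat liver microsomes (0.25 mg/mL) with about 1 µM compound plus 1 mM NADPH, pH 7.4, 37 °C for 30 min, parent left measured by LC-MS/MS against 0 min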
Abeta peptide = experiment: In vivo inhibition of beta-secretase (reduction of Abeta peptide in brain and cerebrospinal fluid); design: species or system rat; details: Rattus norvegicus, po, 4 h;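 further: abeta peptide quantified by sandwich ELISA with electrochemiluminescence readout in rat brain supernatant or CSF, relative to vehicle-dosed control animals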
[4] = biological target: Beta Secretase enzyme (BACE) (Homo sapiens, UniProt P56817); experiment: In vitro enzymatic BACE FRET (fluorescence resonance energy transfer) assay; type: biochemical;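 further: fluorescence read after 1 h with 50 nM quenched peptide substrate spanning the BACE cleavage site, in pH 4.2 acetate buffer containing 10% DMSO and nonionic detergent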
CYP2D6 = CYP2D6 (Homo sapiens, UniProt P10635); experiment: CYP2D6 inhibition assay (bufuralol, pooled human liver microsomes)
CYP3A4 (CYP3A) = CYP3A4 (CYP3A) (Homo sapiens, UniProt P08684); experiment: in vitro; details: microsomes, pH 7.4;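 further: inhibition of CYP3A-mediated 1-hydroxymidazolam formation after 10 min incubation with NADPH, quantified by HPLC MS relative to metabolite produced without test compound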
[5] = HEK293, HEK cells, read-out: HEK cell assay (IC50)
[6] = rat cerebrospinal fluid, orally administered at 30 mg/kg dose, measured after 4 hours, read-out: percent reduction of abeta peptide in the cerebrospinal fluid of the rat
[7] = read-out: BACE1 FRET assay (IC50)
[8] = rat brain, orally administered at 30 mg/kg dose, measured after 4 hours, read-out: percent reduction of abeta peptide in the brain of the rat
[9] = HEK293, HEK cell-based assay, IC50's in uM, read-out: HEK cell assay
[10] = BACE enzyme assay, IC50's in uM, read-out: BACE1 FRET assay
[11] = 2D6 IC50 (uM), CYP enzyme inhibition
[12] = HEK293, cell-based assay, HEK cells, IC50's in uM, read-out: HEK cell assay
[13] = 2D6 IC50, CYP enzyme inhibition

CYP2D6, sequence (P10635 whole entry): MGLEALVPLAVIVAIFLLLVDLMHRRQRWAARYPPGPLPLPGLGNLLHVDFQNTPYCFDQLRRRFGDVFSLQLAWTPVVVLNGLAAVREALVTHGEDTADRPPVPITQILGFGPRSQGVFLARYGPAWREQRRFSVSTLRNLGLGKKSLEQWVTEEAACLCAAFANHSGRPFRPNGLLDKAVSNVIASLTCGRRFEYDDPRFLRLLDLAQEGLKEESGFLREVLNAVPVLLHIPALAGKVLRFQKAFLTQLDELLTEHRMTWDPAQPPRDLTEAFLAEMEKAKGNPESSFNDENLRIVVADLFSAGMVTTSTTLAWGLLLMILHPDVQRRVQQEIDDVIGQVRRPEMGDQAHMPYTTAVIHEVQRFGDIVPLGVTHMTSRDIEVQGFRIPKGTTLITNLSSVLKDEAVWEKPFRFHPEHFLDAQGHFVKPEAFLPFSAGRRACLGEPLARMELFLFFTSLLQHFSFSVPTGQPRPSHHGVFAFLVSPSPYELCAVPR
Beta Secretase enzyme (BACE), sequence (P56817 46-501): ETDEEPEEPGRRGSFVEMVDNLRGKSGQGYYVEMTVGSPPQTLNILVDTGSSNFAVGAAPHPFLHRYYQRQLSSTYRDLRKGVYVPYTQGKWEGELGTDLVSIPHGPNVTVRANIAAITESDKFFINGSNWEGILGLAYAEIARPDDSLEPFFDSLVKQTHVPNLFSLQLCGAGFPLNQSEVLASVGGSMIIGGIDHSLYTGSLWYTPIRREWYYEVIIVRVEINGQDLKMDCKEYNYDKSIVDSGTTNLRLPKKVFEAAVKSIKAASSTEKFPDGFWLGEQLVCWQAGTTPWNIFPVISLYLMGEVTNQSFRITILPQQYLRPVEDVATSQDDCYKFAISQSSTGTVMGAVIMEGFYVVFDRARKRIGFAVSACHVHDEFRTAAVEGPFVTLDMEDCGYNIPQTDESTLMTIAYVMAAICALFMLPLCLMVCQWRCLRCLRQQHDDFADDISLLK
CYP3A4 (CYP3A), sequence (P08684 2-503): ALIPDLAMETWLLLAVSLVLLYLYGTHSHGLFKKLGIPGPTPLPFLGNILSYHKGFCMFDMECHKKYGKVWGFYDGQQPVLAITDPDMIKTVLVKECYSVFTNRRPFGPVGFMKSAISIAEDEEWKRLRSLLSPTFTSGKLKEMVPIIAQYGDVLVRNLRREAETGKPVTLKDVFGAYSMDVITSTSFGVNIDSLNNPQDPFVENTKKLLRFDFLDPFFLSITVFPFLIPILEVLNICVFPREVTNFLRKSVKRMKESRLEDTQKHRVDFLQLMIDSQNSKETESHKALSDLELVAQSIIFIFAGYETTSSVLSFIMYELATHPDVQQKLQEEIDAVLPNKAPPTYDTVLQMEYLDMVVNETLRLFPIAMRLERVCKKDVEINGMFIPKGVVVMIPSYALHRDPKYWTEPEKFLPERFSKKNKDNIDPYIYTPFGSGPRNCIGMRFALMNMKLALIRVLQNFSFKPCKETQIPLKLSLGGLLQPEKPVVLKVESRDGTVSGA

| Structure (SMILES) | HLM ([1]; human liver microsomal data) | RLM ([3]; rat liver microsomal data) | IC50 [4, 10] | IC50 [2, 12] | IC50 (CYP2D6; [13]) | inhibition in vivo at 30 mg/kg (Abeta peptide; [6]) | also measured |
| --- | --- | --- | --- | --- | --- | --- | --- |
| COCC(=O)N[C@@H](Cc1cc(F)cc(F)c1)[C@H](O)CN[C@H]1CC2(CCC2)Oc2c1cc(CC(C)(C)C)nc2-c1cncn1C [Example 597] | – | – | – | – | – | 10 to 80% | HLM ([1]; human liver microsomes): 22 µL/min/mg; IC50 [2, 5]: 0.011 µM; RLM ([3]; rat liver microsomes): 35 µL/min/mg; IC50 [4, 7]: 0.034 µM; IC50 (CYP2D6; 2D6 IC50, CYP2D6 inhibition): 2.8 µM |
| CC(C)Cc1cnc2c(c1)[C@@H](NC[C@@H](O)[C@H](Cc1ccc3c(c1)OCO3)NC(=O)[C@@H](C)F)CC1(CCC1)O2 [Example 600] | – | – | – | – | – | 10 to 80% | IC50 [2, 5]: 0.035 µM; inhibition in vivo at 30 mg/kg (Abeta peptide; [8]): 5 to 80%; IC50 [4, 7]: 0.03 µM |
| CO[C@H](C)C(=O)N[C@@H](Cc1cccc(C#N)c1)[C@H](O)CN[C@H]1CC2(CCC2)Oc2c(-c3ccncc3)cc(CC(C)(C)C)cc21 [Example 638] | – | – | – | – | – | 10 to 80% | HLM ([1]; human liver microsomes): 32 µL/min/mg; IC50 [2, 5]: 0.006 µM; RLM ([3]; rat liver microsomes): 92 µL/min/mg; IC50 [4, 7]: 0.017 µM; IC50 (CYP2D6; 2D6 IC50, CYP2D6 inhibition): 3 µM |
| COCC(=O)N[C@@H](Cc1ccc(F)c(-c2nccs2)c1)[C@H](O)CN[C@H]1CC2(CCC2)Oc2ncc(CC(C)(C)C)cc21 [Example 650, N-((1S,2R)-3-(((4′S)-6′-(2,2-dimethylpropyl)-3′,4′-dihydrospiro[cyclobutane-1,2′-pyrano[2,3-b]pyridin]-4′-yl)amino)-1-(4-fluoro-3-(1,3-thiazol-2-yl)benzyl)-2-hydroxypropyl)-2-methoxyacetamide] | – | – | – | – | – | – | inhibition in vivo at 30 mg/kg (Abeta peptide; [8]): 5 to 80% |
| C#Cc1cccc(C[C@H](NC(=O)COC)[C@H](O)CN[C@H]2CC3(CCC3)Oc3ncc(CC(C)C)cc32)c1 [Example 756] | 53 µL/min/mg | 49 µL/min/mg | 0.005 µM | – | – | 10 to 80% | IC50 [2, 9]: 0.009 µM; IC50 (CYP2D6; [11]): 1.4 µM |
| CC(C)(C)Cc1cnc2c(c1)[C@@H](NC[C@@H](O)[C@H](Cc1cc(F)cc(-c3nccs3)c1)NC(=O)CF)CC1(CCC1)O2 [Example 878] | 72 µL/min/mg | 65 µL/min/mg | 0.004 µM | 0.022 µM | – | – | IC50 (CYP3A4 (CYP3A)): 200 nM; inhibition in vivo at 30 mg/kg (Abeta peptide; read-out: percent reduction of abeta peptide in the brain of the rat): 5 to 80% |
| CC(C)C(=O)N[C@@H](Cc1cc(F)cc(-c2nccs2)c1)[C@H](O)CN[C@H]1CC2(CCC2)Oc2ncc(CC(C)(C)C)cc21 [Example 883] | 54 µL/min/mg | 52 µL/min/mg | 0.021 µM | 0.021 µM | – | 10 to 80% | IC50 (CYP3A4 (CYP3A)): 100 nM |
| COCC(=O)N[C@@H](Cc1cc(-c2nccs2)ccc1F)[C@H](O)CN[C@H]1CC2(CCC2)Oc2ncc(CC(C)(C)C)cc21 [Example 900] | – | – | – | – | ≥ 27 µM | 10 to 80% | IC50 (CYP3A4 (CYP3A)): ≥ 27000 nM |

Now from value to compound, other results behind:

| HLM ([1]; human liver microsomal data) | RLM ([3]; rat liver microsomal data) | IC50 [4, 10] | IC50 [2, 12] | IC50 (CYP2D6; [13]) | Structure (SMILES) | inhibition in vivo at 30 mg/kg (Abeta peptide; [6]) | also measured |
| --- | --- | --- | --- | --- | --- | --- | --- |
| 48 µL/min/mg | 109 µL/min/mg | 0.006 µM | – | – | C#Cc1cc(F)cc(C[C@H](NC(=O)[C@@H](C)OC)[C@H](O)CN[C@H]2CC3(CCC3)Oc3ncc(CC(C)C)cc32)c1 [Example 835] | – | IC50 [2, 9]: 0.026 µM; inhibition in vivo at 30 mg/kg (Abeta peptide; [8]): 5 to 80%; IC50 (CYP2D6; [11]): 2.1 µM |
| 28 µL/min/mg | 64 µL/min/mg | 0.008 µM | 0.018 µM | 2.1 µM | C#Cc1cc(C[C@H](NC(=O)C(OC)OC)[C@H](O)CN[C@H]2CC3(CCC3)Oc3ncc(CC(C)(C)C)cc32)ccc1F [Example 861] | ≥ 50% | – |
| – | – | 0.004 µM | 0.011 µM | 1.6 µM | C#Cc1cccc(C[C@H](NC(=O)COCC)[C@H](O)CN[C@H]2CC3(CCC3)Oc3ncc(CC(C)(C)C)cc32)c1 [Example 870, N-((1S,2R)-3-(((4′S)-6′-(2,2-dimethylpropyl)-3′,4′-dihydrospiro[cyclobutane-1,2′-pyrano[2,3-b]pyridin]-4′-yl)amino)-1-(3-ethynylbenzyl)-2-hydroxypropyl)-2-ethoxyacetamide] | ≥ 50% | – |
| 35 µL/min/mg | 29 µL/min/mg | 0.003 µM | 0.007 µM | 0.8 µM | C#Cc1cccc(C[C@H](NC(=O)CC)[C@H](O)CN[C@H]2CC3(CCC3)Oc3ncc(CC(C)(C)C)cc32)c1 [Example 873] | ≥ 50% | – |
